Experimental data from the NIST ThermoML archive (doi:10.1016/j.jct.2005.03.007).

Assay: Solid-liquid equilibrium temperature
Details: Crystal

c1ccccc1 [benzene]
pressure-volume curve discontinuity
Details	Solid-liquid equilibrium temperature [K]
53620 kPa	293.15
92220 kPa	303.15
133290 kPa	313.15
176820 kPa	323.15
222810 kPa	333.15
271270 kPa	343.15
322200 kPa	353.15

CCCCCCCCCCCCCCCC [hexadecane]
pressure-volume curve discontinuity
Details	Solid-liquid equilibrium temperature [K]
9210 kPa	293.15
50650 kPa	303.15
95560 kPa	313.15
143920 kPa	323.15
195740 kPa	333.15
251030 kPa	343.15

CCCCCCCCCCCCCCCCCC [octadecane]
pressure-volume curve discontinuities
Details	Solid-liquid equilibrium temperature [K]
8860 kPa	303.15
49600 kPa	313.15
94900 kPa	323.15
144780 kPa	333.15
199220 kPa	343.15
258230 kPa	353.15
